{
  "source": "patent US12337010B2",
  "about": "“Compositions and methods of treatment using nicotinamide mononucleotide” (Washington University, priority 2017, dated 2025)",
  "key": {"[1]": {"test_system": "GLP-1 secretion from the ileum", "assay": "GLP-1 secretion from ex vivo ileal explants (ELISA)", "assay_type": "cell-based, mouse", "settings": "ileal explants of 24-month-old female B6 mice, 20 μM, 4 h, vs 0.2% DMSO", "description": "GLP-1 measurement in plasma and in supernatants of ex vivo small intestine explant cultures. Blood was collected after 6 h refeeding (from 10 am to 4 pm) following 24 h fasting (from 9 am to 9 am) from tail veins of 2- or 24-month-old female Slc12a8 knockdown mice and their controls using EDTA-coated tubes. Blood was immediately chilled on ice, centrifuged at 5,000×g at 4° C., and plasma samples were stored at −80° C. Small intestines from gut-specific Slc12a8 knockdown female mice or 12-month-old Slc12a8KO female mice were cut into three segments of the duodenum, jejunum, and ileum with length ratios of 1:3:2 (Wang, H. H., et al., Hepatology, 2007, 45, 998-1006). […] GLP-1 levels in plasma and media were measured by GLP-1 Total ELISA Kit (EMD Millipore, MO) following the manufacturer's instruction. GLP-1 values were normalized by total protein content analyzed by Bradford assay.\nThe involvement of SIRT1 (Yoon, M. J., et al., Cell Metab., 2015 21, 706-717) and SIRT6 (Jiang, H. et al., Nature, 2013, 496, 110-113) in the observed increase in GLP-1 secretion was examined. […] GLP-1 levels were measured by ELISA in the supernatants from ex vivo ileal explants of 24-month-old female B6 mice cultured with 0.2% DMSO, 20 µM EX527 or 20 μM STK665401 for 4 h (n=3 mice, analyzed using ANOVA with Tukey's test)."}, "5′-nucleotidase": {"biological_target": "T1, 5′-nucleotidase (Mus musculus, UniProt Q61503)", "T1 construct": "endogenous in cells; host or cells: primary hepatocytes from C57BL/6J mice", "T1 sequence (Q61503 29-551)": "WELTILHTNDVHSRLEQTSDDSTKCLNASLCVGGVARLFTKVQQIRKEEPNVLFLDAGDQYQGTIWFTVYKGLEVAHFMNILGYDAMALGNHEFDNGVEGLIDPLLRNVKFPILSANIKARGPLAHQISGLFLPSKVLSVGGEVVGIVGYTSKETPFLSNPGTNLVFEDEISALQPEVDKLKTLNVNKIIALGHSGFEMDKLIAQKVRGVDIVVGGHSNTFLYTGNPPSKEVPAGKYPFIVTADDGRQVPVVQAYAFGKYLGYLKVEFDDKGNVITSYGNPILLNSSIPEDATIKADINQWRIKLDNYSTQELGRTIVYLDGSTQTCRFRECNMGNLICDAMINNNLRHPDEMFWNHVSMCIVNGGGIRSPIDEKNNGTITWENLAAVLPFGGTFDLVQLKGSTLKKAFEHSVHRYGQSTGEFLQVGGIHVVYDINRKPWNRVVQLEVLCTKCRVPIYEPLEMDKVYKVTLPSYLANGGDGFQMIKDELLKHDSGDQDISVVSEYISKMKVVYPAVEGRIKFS", "assay": "5'-nucleotidase activity assay in intact primary hepatocytes (adenosine from AMP by HPLC)", "assay_type": "cell-based", "settings": "500 μM AOPCP, 100 μM AMP", "description": "The amounts of adenosine produced were determined by HPLC. […] Silencing efficiencies were evaluated by quantitative RT-PCR.\nAOPCP inhibits 5′-nucleotidase activity by 97%."}},
  "data": [
    {"smiles": "Cn1c(=O)c2cc(S(=O)(=O)Nc3ccc(Cc4ccncc4)cc3)ccc2n(C)c1=O", "note": "[STK665401]", "values": [
      {"measurement": "GLP-1 secretion", "setting": "[1]", "result": "not"}
    ]},
    {"smiles": "Nc1ncnc2c1ncn2[C@@H]1O[C@H](COP(=O)(O)CP(=O)(O)O)[C@@H](O)[C@H]1O", "note": "[AOPCP, adenosine-5′-[α,β-methylene]diphosphate]", "values": [
      {"measurement": "inhibition of 5′-nucleotidase activity", "setting": "5′-nucleotidase", "result": 97, "unit": "%"}
    ]}
  ]
}
